Results on 2 molecules are retold here after patent US6458872B1, “Benzotriazole UV absorbers having enhanced durability” (Ciba Specialty Chemicals Corporation, priority 1997, dated 2002).

Holding throughout (format): physicochemical
Data set [1] is described as follows: Loss of UV absorber from high solids thermoset acrylic melamine clear coat, Xenon-Arc X180 cycle (Example 78). The following applies: for durability (low loss rate absorbance values after exposure): in words, summary of the tables of Example 78. The text has this:
Following the general procedure of Example 77, a number of additional benzotriazole test compounds are incorporated into a high solids thermoset acrylic melamine resin at such concentrations between 1.93 and 3% by weight to give equal molar concentrations of test benzotriazole in equal film thickness, and sufficient to give a starting absorbance of approximately 2.0 absorbance units.
The test discs are exposed in a Xenon-Arc Weather-Ometer at X180 cycle (0.45 Watts/M^2). The initial UV absorbance is measured followed by measurements at roughly 250 hour intervals for the first 2000 hours and every 500 hours thereafter. Each clear coat also contains 1% by weight of a hindered amine light stabilizer, bis-(1-octyloxy-2,2,6,6-tetramethylpiperidin-4-yl) sebacate, as well.

The nature of data set [2]: UV absorption data (Example 74). The following applies: 20 mg/l concentrations; not the molar extinction values. On the procedure: In the following examples the absorbance at 375 nm is reported for 20 mg/l concentrations. This is not the molar extinction values.
Data set [3] can be described thus: Yellowness color of solutions in butyl acetate, Macbeth Color-Eye (Example 75). The following applies: 30 mg/100 mL in butyl acetate; for DE: corresponding Yellowness Index value; for b: yellowness, Macbeth Color-Eye. On the procedure: The following examples show the difference in color between some of the instant compounds as measured by a Macbeth Color-Eye instrument at a concentration of 30 mg/100 mL in butyl acetate. […] In the table, the compounds are listed by increasing b value. The instrument measures yellowness as b and DE is the corresponding Yellowness Index value.

Data set [4] is described as follows: UV absorption data (Example 74). Also on record: ε @ λ max: unit not given beside the values.

“Also recorded” adds a separate entry of the source.

Consider `CC(C)(C)CC(C)(C)c1cc(-n2nc3ccc(S(=O)(=O)c4ccccc4)cc3n2)c(O)c(C(C)(C)c2ccccc2)c1` [Compound U, 5-phenylsulfonyl-2-(2-hydroxy-3-α-cumyl-5-tert-octylphenyl)-2H-benzotriazole], for which the “Units Absorbance Loss” value in data set [1] (after 1264 hours of exposure) is on record as 0.0944. Besides, the “Units Absorbance Loss” value in data set [1] (after 1518 hours of exposure) came out at 0.1114. Also, in data set [1], the “durability (low loss rate absorbance values after exposure)” value was “especially durable”. Also, the “Absorbance @ 375 nm” value in data set [2] was determined as 0.50. In data set [3], this molecule showed a DE of 4.42 and a b of 3.75. In data set [4], the “ε @ λ max” value was 17,300 and the λ max nm was found to be 362 nm.

`CC(C)(C)CC(C)(C)c1cc(-n2nc3ccc(C(F)(F)F)cc3n2)c(O)c(C(C)(C)c2ccccc2)c1` [S, 5-trifluoromethyl-2-(2-hydroxy-3-α-cumyl-5-tert-octylphenyl)-2H-benzotriazole]: the “Units Absorbance Loss” value in data set [1] (after 1253 hours of exposure, starting absorbance approximately 2.0, 1% hindered amine) came to 0.1271; in data set [1] (after 1264 hours of exposure), 0.0921; in data set [1] (after 1489 hours of exposure), 0.1547; in data set [1] (after 1518 hours of exposure), 0.1116; in data set [1] (after 2521 hours of exposure) it was 0.2192. Moreover, the “durability (low loss rate absorbance values after exposure)” value in data set [1] is “significantly more durable; also recorded: especially durable”. In data set [2], the “Absorbance @ 375 nm” value worked out at 0.35. For the same molecule, in data set [3], the DE came to 1.28. In data set [3], the b is 1.05. The “ε @ λ max” value in data set [4] is reported as 15,000. Moreover, in data set [4], the λ max nm amounted to 348 nm.
